Measurements as given in ChEMBL document CHEMBL1201862, “PubChem BioAssay data set” (2004).
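Compound exposure: 48 hours, 5 concentrations, 96-well plates. Here, GI50 denotes the concentration required for 50% inhibition of growth.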 Calls of active or inactive are those of the source. No stated cut-off is given here; in the data, active = GI50 up to about 1.1 µM and inactive = higher.

Tests used:
Experiment in all cases: NCI-60 cell line screen, 48 h
SNB-75 = tested on: SNB-75
SK-OV-3 = tested on: SK-OV-3
MCF7 = tested on: MCF7
UACC-257 = tested on: UACC-257
CAKI-1 = tested on: CAKI-1
CCRF-CEM = tested on: CCRF-CEM
UO-31 = tested on: UO-31
SNB-19 = tested on: SNB-19
NCI-H226 = tested on: NCI-H226
786-0 = tested on: 786-0
MOLT-4 = tested on: MOLT-4
SN12C = tested on: SN12C
SF-295 = tested on: SF-295
OVCAR-4 = tested on: OVCAR-4
Malme-3M = tested on: Malme-3M
EKVX = tested on: EKVX
MDA-MB-435 = tested on: MDA-MB-435
SR = tested on: SR
SF-268 = tested on: SF-268

Measured: GI50

O=c1[nH]nc(Cc2ccccc2)n1C1CC1
inactive: SNB-75 > 100 µM | SK-OV-3 > 100 µM | MCF7 > 100 µM | UACC-257 > 100 µM | CAKI-1 > 100 µM | CCRF-CEM > 100 µM | UO-31 61.7 µM | SNB-19 > 100 µM | NCI-H226 > 100 µM | 786-0 > 100 µM | MOLT-4 > 100 µM | SN12C > 100 µM | SF-295 > 100 µM | OVCAR-4 > 100 µM | Malme-3M > 100 µM | EKVX > 100 µM | MDA-MB-435 > 100 µM | SR > 100 µM | SF-268 > 100 µM

CC1(C)CN=C(Nc2ccc(Cl)cc2)S1
inactive: SNB-75 70.8 µM | SK-OV-3 > 100 µM | MCF7 > 100 µM | UACC-257 70 µM | CAKI-1 > 100 µM | CCRF-CEM 74.3 µM | UO-31 37.2 µM | SNB-19 > 100 µM | NCI-H226 > 100 µM | 786-0 > 100 µM | MOLT-4 58.5 µM | SN12C > 100 µM | SF-295 > 100 µM | OVCAR-4 72.3 µM | Malme-3M > 100 µM | EKVX 64 µM | MDA-MB-435 > 100 µM | SR 65.6 µM | SF-268 > 100 µM

COC(=O)c1ccc(CCc2cc(O)c(Br)cc2O)cc1
inactive: SNB-75 26.8 µM | SK-OV-3 25.4 µM | MCF7 13.5 µM | UACC-257 15.5 µM | CAKI-1 10.3 µM | CCRF-CEM 1.98 µM | UO-31 6.47 µM | SNB-19 17.4 µM | NCI-H226 21.4 µM | 786-0 14.4 µM | MOLT-4 2.42 µM | SN12C 15 µM | SF-295 14.1 µM | OVCAR-4 11.2 µM | Malme-3M 15.7 µM | EKVX 16.9 µM | MDA-MB-435 8.49 µM | SR 3.2 µM | SF-268 13.5 µM

CN(Cc1cc(Br)cc(Br)c1O)Cc1c(O)ccc2ccccc12
inactive: SNB-75 19.1 µM | SK-OV-3 19.6 µM | MCF7 26.4 µM | UACC-257 17.3 µM | CAKI-1 16.1 µM | CCRF-CEM 20.7 µM | UO-31 14.9 µM | SNB-19 17.2 µM | NCI-H226 20.6 µM | 786-0 16.7 µM | MOLT-4 10.4 µM | SN12C 14.9 µM | SF-295 21.5 µM | OVCAR-4 16.5 µM | Malme-3M 21.7 µM | EKVX 16.9 µM | MDA-MB-435 18 µM | SR 20.6 µM | SF-268 24.9 µM
